Experimental data published in publication PMC8747035, “Design, Synthesis, and Biological Evaluation of 5,6,7,8-Tetrahydrobenzo[4,5]thieno[2,3-d]pyrimidines as Microtubule Targeting Agents” (Molecules, 2022).

Tests used:
HeLa cells = assay: SRB assay in HeLa cells; type: cell-based; conditions: Homo sapiens, read-out: IC50 ± SD in HeLa
Procedure: Compounds 4–8, 10, 12, and 13 were evaluated for their abilities to overcome βIII-tubulin mediated drug resistance using an isogenic HeLa cell line pair (Table 4). […] The Rr values (Table 4) were calculated by dividing the IC50 of the βIII-tubulin expressing line by the IC50 obtained in the parental HeLa cells.
(§1) The antiproliferative and cytotoxic effects of the compounds in cancer cells were evaluated using the SRB assay as previously described. MDA-MB-435 cells were obtained from the Lombardi Cancer Center of Georgetown University (Washington, DC, USA). SK-OV-3 and HeLa cells were purchased from ATCC. Details about the generation of the SK-OV-3 MDR1-M6/6 and HeLa WTβIII cells were described previously. The IC50 values represent an average of three independent experiments, each conducted using triplicate points.
(§2) HeLa, A-10, SK-OV-3, and SK-OV-3 MDR1-M6/6 cells were grown in Basal Medium Eagle (Sigma-Aldrich, St. Louis, MO, USA) supplemented with 10% FBS (Hyclone, GE Life Sciences, Logan, UT, USA) 1% GlutaMAX (Gibco, Life Technologies, Waltham, MA, USA) and 50 µg/mL gentamycin (Life Technologies, USA). HeLa WTβIII cells were grown in Dulbecco’s Modified Eagle Medium (Life Technologies) supplemented with 10% FBS and 50 µg/mL gentamycin. MDA-MB-435 cells were maintained in Improved Minimum Essential Medium (Life Technologies) supplemented with 10% FBS and 25 µg/mL gentamycin. All cells were grown at 37 °C in a humidified environment with 5% CO2.

SK-OV-3 cells = assay: SRB assay in SK-OV-3 cells; type: cell-based; conditions: Homo sapiens, read-out: IC50 ± SD in SK-OV-3 Cells
Procedure: Comparison of the IC50 values in the parental SK-OV-3 and genetically manipulated SK-OV-3 MDR1-M6/6 cell line allows for the calculation of a relative resistance value, designated Rr. This value is calculated by dividing the IC50 value obtained in the Pgp-expressing SK-OV-3 MDR1-M6/6 cells by the IC50 obtained in the parental SK-OV-3 cells.
as §1, §2

MDA-MB-435 tumors = assay: MDA-MB-435 xenograft model; type: in vivo, nude mice; conditions: 75 mg/kg i.p. 3 × a week
Procedure: Compound 4 was selected for further evaluation in an in vivo xenograft mouse study in light of its nanomolar potency in vitro in the NCI-60 cancer cell line panel and its potent microtubule depolymerization activity. The in vivo effects of 4 were tested in the MDA-MB-435 xenograft model (Figure 5).
MDA-MB-435 tumor fragments were implanted s.c. into the flanks of female nude mice. […] Compound 4 was dissolved in a 50:50 Cremophor EL/DMSO mixture and further dissolved in PBS for a final concentration of 10:10:80 Cremophor EL:DMSO:PBS (v/v). […] Tumor volumes and mouse weights were measured 2–3 times a week. A two-way ANOVA with Dunnett’s post-hoc tests including all treatment groups in the trial was used to determine significant differences in tumor volumes between drug-treated and untreated control groups on each measurement day. These animal studies were performed at the University of Texas Health Science Center in San Antonio in compliance with an approved Institutional Animal Care and Use protocol.
MDA-MB-435 tumors were implanted into the flanks of nude mice and allowed to grow until they reached a volume of ~200 mm^3. […] Tumor volumes and mouse weights were measured 2–3 times a week. Statistical significance was evaluated by two-way ANOVA (time vs. drug) with Dunnett’s post-hoc tests. A statistically significant difference in tumor volume was detected on day 14 between mice treated with 4 (* p = 0.0384) and untreated control tumors.

CCRF-CEM = assay: NCI-60 growth inhibition, CCRF-CEM; type: cell-based; conditions: Homo sapiens, Leukemia
Excerpt: (§3) Compound 4 had better potency than the lead compound 1 in 50 cancer cell lines. (better by 5 to 6-fold in leukemia, 2 to 17-fold in NSCLC, 2 to 6-fold in colon cancer, 2 to 5-fold in CNS cancer, 2 to 25-fold in melanoma, 2 to 5-fold in ovarian cancer, 2 to 9-fold in renal cancer, 2 to 5-fold in prostate cancer, and 2 to 6-fold in breast cancer compared to lead compound 1).

HL-60(TB) = assay: NCI-60 growth inhibition, HL-60(TB); type: cell-based; conditions: Homo sapiens, Leukemia
Excerpt: as §3

K-562 = assay: NCI-60 growth inhibition, K-562; type: cell-based; conditions: Homo sapiens, K562, Leukemia
Excerpt: as §3

NCI-H226 = assay: NCI-60 growth inhibition, NCI-H226; type: cell-based; conditions: Homo sapiens, NSCLC
Excerpt: as §3

NCI-H460 = assay: NCI-60 growth inhibition, NCI-H460; type: cell-based; conditions: Homo sapiens, NSCLC
Excerpt: as §3

HCC-2998 = assay: NCI-60 growth inhibition, HCC-2998; type: cell-based; conditions: Homo sapiens, Colon Cancer
Excerpt: as §3

HCT-116 = assay: NCI-60 growth inhibition, HCT-116; type: cell-based; conditions: Homo sapiens, Colon Cancer
Excerpt: as §3

SW-620 = assay: NCI-60 growth inhibition, SW-620; type: cell-based; conditions: Homo sapiens, Colon Cancer
Excerpt: as §3

SF-295 = assay: NCI-60 growth inhibition, SF-295; type: cell-based; conditions: Homo sapiens, CNS Cancer
Excerpt: as §3

SNB-75 = assay: NCI-60 growth inhibition, SNB-75; type: cell-based; conditions: Homo sapiens, CNS Cancer
Excerpt: as §3

MALME-3M = assay: NCI-60 growth inhibition, MALME-3M; type: cell-based; conditions: Homo sapiens, Melanoma
Excerpt: as §3

M14 = assay: NCI-60 growth inhibition, M14; type: cell-based; conditions: Homo sapiens, Melanoma
Excerpt: as §3

SK-MEL-28 = assay: NCI-60 growth inhibition, SK-MEL-28; type: cell-based; conditions: Homo sapiens, Melanoma
Excerpt: as §3

SK-MEL-5 = assay: NCI-60 growth inhibition, SK-MEL-5; type: cell-based; conditions: Homo sapiens, Melanoma
Excerpt: as §3

UACC-62 = assay: NCI-60 growth inhibition, UACC-62; type: cell-based; conditions: Homo sapiens, Melanoma
Excerpt: as §3

IGROVI = assay: NCI-60 growth inhibition, IGROVI; type: cell-based; conditions: Homo sapiens, Ovarian Cancer
Excerpt: as §3

OVCAR-3 = assay: NCI-60 growth inhibition, OVCAR-3; type: cell-based; conditions: Homo sapiens, Ovarian Cancer
Excerpt: as §3

OVCAR-8 = assay: NCI-60 growth inhibition, OVCAR-8; type: cell-based; conditions: Homo sapiens, Ovarian Cancer
Excerpt: as §3

786-0 = assay: NCI-60 growth inhibition, 786-0; type: cell-based; conditions: Homo sapiens, Renal Cancer
Excerpt: as §3

A498 = assay: NCI-60 growth inhibition, A498; type: cell-based; conditions: Homo sapiens, Renal Cancer
Excerpt: as §3

ACHN = assay: NCI-60 growth inhibition, ACHN; type: cell-based; conditions: Homo sapiens, Renal Cancer
Excerpt: as §3

RXF 393 = assay: NCI-60 growth inhibition, RXF 393; type: cell-based; conditions: Homo sapiens, Renal Cancer
Excerpt: as §3

UO-31 = assay: NCI-60 growth inhibition, UO-31; type: cell-based; conditions: Homo sapiens, Renal Cancer
Excerpt: as §3

Q: `COc1ccc(N(C)c2nc(N)nc3sc4c(c23)CCCC4)cc1` [Compound 4, N4-(4-methoxyphenyl)-N4-methyl-5,6,7,8-tetrahydrobenzo[4,5]thieno[2,3-d]pyrimidine-2,4-diamine] was tested. Which IC50 (HeLa cells) did it give?
A: 13.5 ± 1.5 nM

Q: What about the IC50 (SK-OV-3 cells) of the same compound?
A: 11.8 ± 1.1 nM

Q: And the “Antitumor effects on MDA-MB-435 tumor volume vs control” value (MDA-MB-435 tumors; day 14)?
A: statistically significant antitumor effects

Q: And the Weight loss (MDA-MB-435 tumors; nude mice)?
A: moderate weight loss

Q: And the GI50 (CCRF-CEM)?
A: 7.12 nM

Q: And the GI50 (HL-60(TB))?
A: 4.38 nM

Q: What about the GI50 (K-562) of the same compound?
A: 2.72 nM

Q: And the GI50 (NCI-H226)?
A: 17.5 nM

Q: And the GI50 (NCI-H460)?
A: 10.4 nM

Q: What about the GI50 (HCC-2998) of the same compound?
A: 11.8 nM

Q: What about the GI50 (HCT-116) of the same compound?
A: 5.46 nM

Q: What about the GI50 (SW-620) of the same compound?
A: 5.63 nM

Q: And the GI50 (SF-295)?
A: 10.2 nM

Q: And the GI50 (SNB-75)?
A: 8.42 nM

Q: What about the GI50 (MALME-3M) of the same compound?
A: 12.2 nM

Q: And the GI50 (M14)?
A: 4.32 nM

Q: What about the GI50 (SK-MEL-28) of the same compound?
A: 12.1 nM

Q: And the GI50 (SK-MEL-5)?
A: 10.8 nM

Q: And the GI50 (UACC-62)?
A: 14.9 nM

Q: What about the GI50 (IGROVI) of the same compound?
A: 12.8 nM

Q: What about the GI50 (OVCAR-3) of the same compound?
A: 17.1 nM

Q: What about the GI50 (OVCAR-8) of the same compound?
A: 18.1 nM

Q: What about the GI50 (786-0) of the same compound?
A: 12.4 nM

Q: And the GI50 (A498)?
A: 12 nM

Q: And the GI50 (ACHN)?
A: 10.2 nM

Q: And the GI50 (RXF 393)?
A: 7.65 nM

Q: And the GI50 (UO-31)?
A: 11.8 nM
